In publication PMC6455008, “Methylation at the C-3′ in D-Ring of Strigolactone Analogs Reduces Biological Activity in Root Parasitic Plants and Rice” (Frontiers in Plant Science, 2019):
Read-outs that look alike come from different tables or passages of the source.

Key:
[1] = system: rice d10 mutant; assay: Rice micro tillering bioassay (d10 mutant, hydroponic); format: in vivo
Experimental: Rice seeds (d10) were sterilized with 2.5% sodium hypochlorite for 15 min. After thorough washing with sterile MilliQ water, the seeds were kept in water for 2 days at 30°C in the dark for imbibition and pre-germination. The pre-germinated seeds were then transferred to moist filter paper in 90-mm petri plates and incubated at 30°C overnight. The plates with germinated seeds were then shifted in a growth cabinet with fluorescent white light (130–180 μM m^−2 s^−1) for 1 week. Seven days-old seedlings were moved to 50-ml falcon tubes (one seedling per tube) containing modified half-strength Hoagland nutrient solution in greenhouse. After 1 week, rice plants were treated with 2.5 μM of each SL analog. Mock and GR24 (2.5 μM) were included as control treatments. Six applications of each SL analog were done two times in a week. After 3 weeks of application, number of tillers per plant, plant height, and fresh biomass were measured at final harvest.

[2] = system: Arabidopsis seedlings; assay: Arabidopsis hypocotyl elongation assay; format: in vivo; conditions: Arabidopsis thaliana, compared to control seedlings, read-out: inhibition of hypocotyl growth (reduction in hypocotyl length)
Experimental: (§1) The sterilized Arabidopsis seeds were grown in petri plates that were first kept at 4°C in darkness for 3 days. For hypocotyl study, the petri plates were exposed to continuous white light for 24 h, then transferred to continuous monochromatic red light (20 μmol m^−2 s^−1, 22°C) conditions for another 4 days. For lateral root density, the plates were vertically grown at 22°C in Percival incubator under long day conditions (16 h at 22°C/8 h at 16°C day/night, 60% relative humidity, 60–70 μmol m^−2 s^−1 white light) for 8 days. After scanning, the hypocotyl length and number of lateral roots were recorded using publicly available ImageJ software.^1

[3] = system: Arabidopsis seedlings; assay: Arabidopsis lateral root density assay; format: in vivo; conditions: Arabidopsis thaliana, compared to control seedlings
Experimental: as §1

[4] = system: S. hermonthica seeds; assay: Parasitic seed germination bioassay, Striga; format: in vivo, Striga hermonthica; conditions: for EC50: Striga hermonthica
Experimental: (§4) Germination activity of SL analogs on S. hermonthica and P. aegyptiaca seeds was tested by following the procedure described before ([Jamil et al., 2012]). The preconditioned Striga and Phelipanche seeds were treated with 50 μl of each SL analog solution at a concentration range (10^−5–10^−12 M). GR24 and sterile MilliQ water were included as positive and negative controls, respectively. The treated seeds were allowed to germinate in the dark for 24 h at 30°C (for Striga) and for 1 week at 25°C (for Phelipanche). The germinated and non-germinated seeds were counted under a binocular microscope, and germination rate (in %) was calculated.
(§5) Collected data were analyzed statistically using statistical software package R (version 3.2.2).

[5] = system: P. aegyptiaca seeds; assay: Parasitic seed germination bioassay, Phelipanche; format: in vivo, Phelipanche aegyptiaca
Experimental: as §4, §5

[6] = system: Striga seeds; assay: Stability of formulated SL analogs in sand (Striga germination readout); format: physicochemical, Striga hermonthica; conditions: 1.0 μM, sand, 30°C, 7 days
Experimental: (§2) The stability of formulated SL analogs was further tested in sand culture. About 1.5 ml of silver sand was added in each of 6 wells of 24-well plates. Then, 800 μl of formulated SL analogs (1.0 μM) was added in each of the six wells. The plates were sealed firmly with para-film, wrapped in aluminum foil, and placed at 30°C from day 1 to day 7. After 7 days, glass fiber discs containing preconditioned Striga seeds were placed on the top of each of the six wells and incubated in the dark at 30°C for 24 h. The germinated and non-germinated seeds were counted from each disc. In addition, the viability of formulated SL analogs was also tested in aqueous solution for 7 weeks at 30°C. About 800-μl aqueous solution of formulated SL analogs (1.0 μM) was added in a black Eppendorf tube weekly up to 6 weeks and incubated at 30°C. On the seventh week, about 50 μl of each analog was applied on a glass fiber disc containing preconditioned Striga seed and put again in the dark in sealed petri plates at 30°C for 24 h. Germinated and non-germinated seeds were counted from each disc.

[7] = system: Striga seeds; assay: Stability of formulated SL analogs in aqueous solution under storage (Striga germination readout); format: physicochemical, Striga hermonthica; conditions: 1.0 μM
Experimental: as §2

[8] = molecular target: T1, ShHTL7 (Striga hermonthica, UniProt A0A0M3PNA2); assay: In vitro YLG hydrolysis competition assay, ShHTL7; format: biochemical
T1 sequence (A0A0M3PNA2 1-271): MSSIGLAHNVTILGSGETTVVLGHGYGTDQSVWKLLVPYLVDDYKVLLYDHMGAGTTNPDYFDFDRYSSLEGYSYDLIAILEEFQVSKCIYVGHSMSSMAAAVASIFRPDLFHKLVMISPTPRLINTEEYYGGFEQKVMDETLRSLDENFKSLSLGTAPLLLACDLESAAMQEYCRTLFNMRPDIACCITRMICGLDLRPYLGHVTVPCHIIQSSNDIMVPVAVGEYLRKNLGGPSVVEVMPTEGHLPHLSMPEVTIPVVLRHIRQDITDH
Experimental: (§3) Protein expression and purification of ShHTL7 and Oryza sativa D14 (OsD14) was carried out according to the procedure described earlier ([Jamil et al., 2018]). In vitro Yoshimulactone Green (YLG) hydrolysis assays ([Tsuchiya et al., 2015]) were carried out using 3.0 μM of protein ShHTL7 and OsD14 in a reaction buffer (1X PBS buffer, pH 7.3) with 0.1% DMSO at a 100-μl volume on a 96-well black plate (Greiner). For competitive assays, rac-GR24, AR8, MP13, and MP26 (at range between 0.01 and 50 μM) were co-incubated with 1.0 μM of YLG (Tokyo Chemical Industry Co. Ltd., product number E1238) for 60 min at room temperature. Fluorescent intensity was measured by spectraMax i5 (Molecular Devices) at excitation by 480 nm and detection by 520 nm. The change in fluorescence observed over the course of 1 h of YLG in buffer without protein was subtracted from the data collected in presence of protein. IC50 values were calculated by GraphPad (Prism 7).

[9] = molecular target: T2, OsD14 (Oryza sativa subsp. japonica, UniProt Q10QA5); assay: In vitro YLG hydrolysis competition assay, OsD14; format: biochemical
T2 construct: made in house
T2 sequence (Q10QA5 1-318): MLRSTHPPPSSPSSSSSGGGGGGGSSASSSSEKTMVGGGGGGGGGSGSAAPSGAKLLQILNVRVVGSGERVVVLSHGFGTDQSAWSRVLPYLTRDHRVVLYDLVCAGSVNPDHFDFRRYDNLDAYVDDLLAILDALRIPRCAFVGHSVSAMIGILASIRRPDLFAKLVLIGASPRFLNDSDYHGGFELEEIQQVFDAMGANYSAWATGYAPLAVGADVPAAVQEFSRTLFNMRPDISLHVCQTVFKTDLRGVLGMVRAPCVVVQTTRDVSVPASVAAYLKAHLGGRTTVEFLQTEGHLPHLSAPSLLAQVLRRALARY
Experimental: as §3

[10] = system: Striga hermonthica; assay: Striga emergence in pots under greenhouse conditions (suicidal germination, rice host); format: in vivo; conditions: formulated 1.0 μM
Experimental: About 10 mg of (ca 4,000) Striga seeds were thoroughly mixed in 2 L of sand and soil mixture (1:1) and added in 3-L perforated plastic pot containing 0.5 L of clean soil in the bottom. Striga seeds were first preconditioned by giving light irrigation and putting pots at 35°C in greenhouse for 10 days. Each pot was sprayed with 20-ml (1.0 μM) formulated SL analogs up to 10 days at 2-day intervals. A light irrigation was given next day of each application to move the compound to Striga seeds and they were allowed to germinate for suicidal death without host for another 1 week. Then, three rice seedlings (5 days old) were planted in the middle of each pot. The rice plants were grown under normal growth condition (30°C, 70% RH) for 8 weeks. Number of emerged Striga plants in each pot were counted.

What does the source list for `CC1=C[C@H](O/C=C2/C(=O)O[C@@H]3c4ccccc4C[C@H]23)OC1=O` [GR24, reference compound]?
inhibition at 2.5 µM ([1]; Oryza sativa, read-out: tillering inhibition): 76%; number of tillers per plant ([1]; SL-deficient d10 mutant, hydroponic, 2.5 μM, twice a week up to 3 weeks, untreated d10 six tillers): 1.4 tillers per plant; plant height compared to mock ([1]; d10 mutant, 2.5 μM): significant increase in plant height; inhibition at 1 µM [2]: 37%; inhibition at 1 µM [3]: 53%; Striga germination rate ([4]; 1.0 μM, formulated and non-formulated, 24 h at 30°C): 75%; EC50 ([4]; read-out: EC50 Striga seed germination, formulated): 0.44 nM; EC50 ([4]; read-out: EC50 Striga seed germination, non-formulated): 1.9 nM; EC50 ([5]; Phelipanche aegyptiaca, read-out: EC50 P. aegyptiaca seed germination, formulated): 9.3 nM; P. aegyptiaca germination rate ([5]; non-formulated, 1.0 μM, 1 week at 25°C): 75%; Striga germination rate on seventh day of incubation in sand [6]: around 20%; Striga germination rate maintained for 5 weeks of storage ([7]; 30°C, 5 weeks): around 38%; Striga germination rate after 6 weeks of storage ([7]; 30°C, 6 weeks): 11%; Striga germination rate before storage ([7]; before storage): 76%; IC50 [8]: 1640 ± 520 nM; IC50 [9]: 1240 ± 90 nM; decrease in Striga emergence compared to mock at 10 WAS ([10]; 10 weeks after sowing): 82%; Striga hermonthica emergence, 5 WAS ([10]; mean ± SE, n=5, 5 weeks after sowing): 0.0±0.0; Striga hermonthica emergence, 6 WAS ([10]; mean ± SE, n=5, 6 weeks after sowing): 0.0±0.0; Striga hermonthica emergence, 7 WAS ([10]; mean ± SE, n=5, 7 weeks after sowing): 1.0±0.6; Striga hermonthica emergence, 8 WAS ([10]; mean ± SE, n=5, 8 weeks after sowing): 1.6±0.5; Striga hermonthica emergence, 9 WAS ([10]; mean ± SE, n=5, 9 weeks after sowing): 1.6±0.5; Striga hermonthica emergence, 10 WAS ([10]; mean ± SE, n=5, 10 weeks after sowing): 2.4±0.8; percent decrease in Striga hermonthica emergence over mock, 8 WAS ([10]; negative = decrease, 8 WAS): -85%; percent decrease in Striga hermonthica emergence over mock, 9 WAS ([10]; negative = decrease, 9 WAS): -84%; percent decrease in Striga hermonthica emergence over mock, 10 WAS ([10]; negative = decrease, 10 WAS): -82%
